Laboratory results: article PMC3275370 (The Journal of Cell Biology, 2012)

How the values were obtained:
[1] = tested on: mRNA export block; assay type: cell-based
[2] = tested on: NS1; assay type: cell-based, influenza virus
[3] = tested on: A/WSN/1933; assay type: cell-based, influenza virus
[4] = tested on: VSV-GFP (Indiana strain); assay type: cell-based, vesicular stomatitis virus
[5] = tested on: MDCK cells
[6] = tested on: HBECs; test: Measurements of cellular UMP, UDP and UTP levels by LC-MS/MS; assay type: cell-based, human; details: HBECs treated with compound
[7] = tested on: VSV M protein; assay type: cell-based, vesicular stomatitis virus

Row | SMILES | poly(A)+ RNA distribution in influenza virus-infected cells [1] | reversal of NS1 inhibition of host gene expression (luciferase activity) [2] | antiviral effect on influenza virus [3] | antiviral effect on VSV [4] | influenza virus replication [3] | NS1-mediated mRNA export block in absence of virus [1] | cytotoxicity [5] | UMP and UDP pools [6] | UTP levels [6] | VSV replication [4] | inhibition of gene expression by M protein [7]
1 | CCOc1ccc(-c2cc(C(=O)O)c3cc(Cl)ccc3n2)cc1 [Compound 1, 6-chloro-2-(4-ethoxyphenyl)quinoline-4-carboxylic acid] | normal distribution of mRNA in the nucleus and in the cytoplasm | reverted the inhibition of host gene expression by NS1 | – | – | – | – | – | – | – | – | –
2 | Cc1ccc(-c2cc(C(=O)O)c3cc(Cl)ccc3n2)cc1 [Compound 1-10, 6-chloro-2-p-tolylquinoline-4-carboxylic acid] | – | – | no antiviral effect | no antiviral effect | – | – | – | – | – | – | –
3 | O=C(O)c1cc(-c2ccc(Oc3ccccc3)cc2)nc2ccc(F)cc12 [Compound 1-14, 6-fluoro-2-(4-phenoxyphenyl)quinoline-4-carboxylic acid] | normal distribution of mRNA in the nucleus and in the cytoplasm | reverted | – | – | virus replication was inhibited | released | not cytotoxic | down-regulated to a lesser extent | reduced UTP levels | down-regulated | reverted
